Columns and labels:
[1] = cited from earlier work
[2] = pH of one percent solution in distilled water; assay type: physicochemical

Row | pH of solution [2] | SMILES | Solubility in water [1]
1 |  | NCCC(O)(P(=O)(O)O)P(=O)(O)O [Pamidronic acid, (3 amino-1-hydroxypropylidene) bisphosphonic acid] | practically insoluble
2 | approximately 8.3 | NCCC(O)(P(=O)(O)O)P(=O)(O)O [pamidronate disodium] | 

Reference: patent publication US20030124151A1, “Pamidronate solution” (Mayne Pharma Pty Ltd., priority 2000, published 2003)
